According to patent publication US6465228B1, “Levodione reductase” (Roche Vitamins, Inc., priority 1999, dated 2002):
“Also recorded” adds a separate entry of the source. Where two headings read alike, the source gives them in different places.

Tests used:
[1] = system: Corynebacterium aquaticum AKU611; experiment: Biolog System assimilation of carbon sources; assay type: cell-based; settings: 96-well plate, BUGM+B medium, 24 hours at 28° C.
Description: Each well contained one of the 96 types of carbon sources in BUGM+B medium (Biolog Universal Growth Media+Blood) (Biolog Inc.).

levodione reductase [2] = target: T1, levodione reductase (Leifsonia aquatica, UniProt Q9LBG2); assay type: biochemical, Corynebacterium aquaticum AKU611
T1 construct: The LR is isolated and purified from the cell-free extract of disrupted cells; made in house; host or cells: Corynebacterium aquaticum AKU611 (FERM BP-6448); This is the natural producer and there was no recombinant expression; The enzyme was purified by ammonium sulfate precipitation and DEAE-Sephacel, alkyl Superose and MONO Q chromatography
T1 sequence (Q9LBG2 1-267): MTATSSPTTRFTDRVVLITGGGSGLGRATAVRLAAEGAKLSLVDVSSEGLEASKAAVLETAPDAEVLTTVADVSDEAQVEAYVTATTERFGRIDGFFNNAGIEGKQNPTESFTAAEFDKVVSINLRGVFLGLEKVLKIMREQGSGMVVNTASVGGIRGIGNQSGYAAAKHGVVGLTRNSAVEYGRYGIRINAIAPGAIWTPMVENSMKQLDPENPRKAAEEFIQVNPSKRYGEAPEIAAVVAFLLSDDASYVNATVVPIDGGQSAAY
Method: (§1) A basal reaction mixture having a total volume of 500 μl includes 100 μl of 1 M potassium phosphate buffer (pH 7.0), 20 μl of 8 mM NADH in 0.2 mM KOH, 10-40 μl of the enzyme solution (i.e., levodione reductase), and water up to a total of 500 μl . This reaction mixture was incubated for 1 minute at 37 ° C. Then, 2 μl of 0.5 M levodione solution were added to give a final concentration of 2 mM, and the whole mixture was incubated for 1 minute at 37 ° C. The levodione reductase enzyme activity was monitored with the decrease of the absorbance of NADH at 340 nm.

levodione reductase [3] = target: T1, levodione reductase; experiment: Substrate specificity, standard LR enzyme assay (NADH decrease at 340 nm); assay type: biochemical, Corynebacterium aquaticum AKU611; settings: for Enzyme Activity: substrate 2 mM final concentration instead of levodione
Method: as §1
In the present invention, one unit of the levodione reductase enzyme activity is defined as the amount of the levodione reductase which catalyzes the oxidation of 1 μmole of NADH per minute.
The substrate specificity of the enzyme was determined using the same enzyme assay method as described under 1, except that various solutions containing different substrates (2 mM final concentration in the reaction mixture) were used instead of levodione.

levodione reductase [4] = target: T1, levodione reductase; experiment: Co-factor requirement / identification of reaction product; assay type: biochemical, Corynebacterium aquaticum AKU611; settings: for function as co-factor / electron donor: reduction of levodione to actinol
Method: […] To this reaction mixture, 10 Al of a 0.5 M levodione solution were added five times at 6 minute intervals. The reaction mixture was incubated for a further 5 minutes, and extracted with 1 ml of ethyl acetate. The extract was analyzed by gas chromatography (column: HR-20M (Shinwa, Kyoto, Japan) 0.25 mm Ø×30 m), column temperature: 160° C. (constant), injector temperature: 250° C., carrier gas: He (about 1 ml/min.). As a result, the product was identified as being actinol in comparison with a standard sample of actinol.

[5] = Table 4-1, + 3 mM NaCl, metal 100 mM
[6] = Table 4-1, + 3 mM NaCl, metal 200 mM
[7] = Table 4-1, + 3 mM NaCl, metal 400 mM
[8] = Table 4-1, + 3 mM NaCl, metal 800 mM
[9] = Table 4-1, + 3 mM NaCl, metal 1600 mM
[10] = Table 4-1, + 3 mM NaCl, metal 1800 mM
[11] = Table 4-1, + 3 mM NaCl, metal 2000 mM
[12] = Table 4-1, + 3 mM NaCl, metal 2500 mM
[13] = Table 4-1, + 3 mM NaCl, metal 3000 mM

OC[C@H]1O[C@H](O[C@H]2[C@H](O)[C@@H](O)[C@@H](O[C@H]3[C@H](O)[C@@H](O)C(O)O[C@@H]3CO)O[C@@H]2CO)[C@H](O)[C@@H](O)[C@@H]1O (mixture of isomers) [C4, Maltotriitrose]
Assimilation [1]: +

O=P(O)(O)OCC(O)CO (racemic) [H12, DL-α-glycerol phosphate]
Assimilation [1]: −

OC[C@H]1O[C@@H]2O[C@H]3[C@H](O)[C@@H](O)[C@@H](O[C@H]4[C@H](O)[C@@H](O)[C@@H](O[C@H]5[C@H](O)[C@@H](O)[C@@H](O[C@H]6[C@H](O)[C@@H](O)[C@@H](O[C@H]7[C@H](O)[C@@H](O)[C@@H](O[C@H]1[C@H](O)[C@H]2O)O[C@@H]7CO)O[C@@H]6CO)O[C@@H]5CO)O[C@@H]4CO)O[C@@H]3CO [A2, α-cyclodextrin]
Assimilation [1]: −

OC[C@H]1O[C@@H]2O[C@H]3[C@H](O)[C@@H](O)[C@@H](O[C@H]4[C@H](O)[C@@H](O)[C@@H](O[C@H]5[C@H](O)[C@@H](O)[C@@H](O[C@H]6[C@H](O)[C@@H](O)[C@@H](O[C@H]7[C@H](O)[C@@H](O)[C@@H](O[C@H]8[C@H](O)[C@@H](O)[C@@H](O[C@H]1[C@H](O)[C@H]2O)O[C@@H]8CO)O[C@@H]7CO)O[C@@H]6CO)O[C@@H]5CO)O[C@@H]4CO)O[C@@H]3CO [A3, β-cyclodextrin]
Assimilation [1]: −

OC[C@@H](O)C(O)[C@H](O)CO [B2, D-arabitol]
Assimilation [1]: +

O[C@H]1[C@H](O)[C@@H](O)[C@H](O)[C@@H](O)[C@H]1O [B12, m-inositol]
Assimilation [1]: −

OC[C@H]1O[C@@](CO)(O[C@H]2O[C@H](CO)[C@@H](O)[C@H](O)[C@H]2O)[C@@H](O[C@H]2O[C@H](CO)[C@@H](O)[C@H](O)[C@H]2O)[C@@H]1O [C7, D-melezitose]
Assimilation [1]: −

OC[C@H]1O[C@H](OC[C@H]2OC(O)[C@H](O)[C@@H](O)[C@@H]2O)[C@H](O)[C@@H](O)[C@H]1O (stereo partly drawn) [C8, D-melibiose]
Assimilation [1]: +

COC1OC(CO)C(O)C(O)C1O [C9, α-methyl-D-galactoside]
Assimilation [1]: −

COC1OC(CO)C(O)C(O)C1O [C10, α-methyl-D-galactoside]
Assimilation [1]: −

CO[C@H]1O[C@H](CO)[C@@H](O)[C@H](O)[C@H]1O [C12, α-methyl-D-glucoside]
Assimilation [1]: −

[Cl-].[Cs+] [CsCl]
increase of enzyme activity (levodione reductase [2]; 1.8 M CsCl): about 250 fold | Relative Activity (levodione reductase [2]; [5]): 5.9% | Relative Activity (levodione reductase [2]; [6]): 14.3% | Relative Activity (levodione reductase [2]; [7]): 28.3% | Relative Activity (levodione reductase [2]; [8]): 48.1% | Relative Activity (levodione reductase [2]; [9]): 71.4% | Relative Activity (levodione reductase [2]; [10]): 100% | Relative Activity (levodione reductase [2]; [11]): 86.8% | Relative Activity (levodione reductase [2]; [12]): 88.4% | Relative Activity (levodione reductase [2]; [13]): 88.0%

O=C1CCCCC1 [Cyclohexanone]
Enzyme Activity (levodione reductase [3]): Not detected (ND)

CO[C@@H]1O[C@H](CO)[C@@H](O)[C@H](O)[C@H]1O [D1, β-methyl-D-glucoside]
Assimilation [1]: −

COC1OC(CO)C(O)C(O)C1O [D2, α-methyl-D-mannoside]
Assimilation [1]: −

OC[C@H]1O[C@H](OC[C@H]2OC(O)(CO)[C@@H](O)[C@@H]2O)[C@H](O)[C@@H](O)[C@@H]1O (stereo partly drawn) [D3, Palatinose]
Assimilation [1]: +

OC[C@H]1O[C@H](OC[C@H]2O[C@H](O[C@]3(CO)O[C@H](CO)[C@@H](O)[C@@H]3O)[C@H](O)[C@@H](O)[C@@H]2O)[C@H](O)[C@@H](O)[C@H]1O [D5, D-raffinose]
Assimilation [1]: +

OC[C@@]12OC[C@@H](O1)[C@@H](O)[C@@H](O)[C@@H]2O [D9, Sedoheputulosan]
Assimilation [1]: −

OC[C@H]1O[C@H](OC[C@H]2O[C@H](OC[C@H]3O[C@H](O[C@]4(CO)O[C@H](CO)[C@@H](O)[C@@H]4O)[C@H](O)[C@@H](O)[C@@H]3O)[C@H](O)[C@@H](O)[C@H]2O)[C@H](O)[C@@H](O)[C@H]1O [D11, Stachyose]
Assimilation [1]: +

OC[C@H]1O[C@H](O[C@H]2O[C@H](CO)[C@@H](O)[C@H](O)[C@H]2O)[C@H](O)[C@@H](O)[C@@H]1O [E2, D-trehalose]
Assimilation [1]: −

O=C(CO)[C@@H](O[C@H]1O[C@H](CO)[C@@H](O)[C@H](O)[C@H]1O)[C@H](O)[C@H](O)CO [E3, Turanose]
Assimilation [1]: +

C[C@H](O)C(=O)O [F3, L-lactic acid]
Assimilation [1]: −

O=C(O)C[C@@H](O)C(=O)O [F4, D-malic acid]
Assimilation [1]: −

O=C(O)C[C@H](O)C(=O)O [F5, L-malic acid]
Assimilation [1]: −

O=C1CC[C@@H](C(=O)O)N1 [G8, L-pyloglutamic acid]
Assimilation [1]: −

NCCCCN [G10, Putrscine]
Assimilation [1]: −

O=P(O)(O)O[C@H]1O[C@H](CO)[C@@H](O)[C@H](O)[C@H]1O [H10, Glucose-1-phosphate]
Assimilation [1]: −

[Cl-].[K+] [KCl]
Relative Activity (levodione reductase [2]; Table 4-2, metal 200 mM): 11.5% | Relative Activity (levodione reductase [2]; Table 4-2, metal 400 mM): 22.2% | Relative Activity (levodione reductase [2]; Table 4-2, metal 800 mM): 40.5% | Relative Activity (levodione reductase [2]; Table 4-2, metal 1600 mM): 45.3% | Relative Activity (levodione reductase [2]; Table 4-2, metal 1800 mM): 33.5% | Relative Activity (levodione reductase [2]; Table 4-2, metal 2000 mM): 28.4% | Relative Activity (levodione reductase [2]; Table 4-2, metal 2500 mM): 25.9% | Relative Activity (levodione reductase [2]; Table 4-2, metal 3000 mM): 25.2%

C[C@@H]1CC(=O)CC(C)(C)C1=O [Levodione, (6R)-2,2,6-trimethylcyclohexane-1,4-dione]
Enzyme Activity (levodione reductase [3]): 5.66 unit/ml | substrate specificity of the enzyme (levodione reductase [3]; substrates 2 mM): the only substrate for which the enzyme exhibited activity

NC(=O)C1=CN([C@@H]2O[C@H](COP(=O)(O)OP(=O)(O)OC[C@H]3O[C@@H](n4cnc5c(N)ncnc54)[C@H](O)[C@@H]3O)[C@@H](O)[C@H]2O)C=CC1 [NADH]
function as co-factor / electron donor (levodione reductase [4]): could serve as a co-factor

NC(=O)C1=CN([C@@H]2O[C@H](COP(=O)(O)OP(=O)(O)OC[C@H]3O[C@@H](n4cnc5c(N)ncnc54)[C@H](OP(=O)(O)O)[C@@H]3O)[C@@H](O)[C@H]2O)C=CC1 [NADPH]
actinol detected by gas chromatography (levodione reductase [4]; NADH replaced with NADPH, 30° C.): only a trace amount of actinol was detected | function as co-factor / electron donor (levodione reductase [4]): does not work as an electron donor; also recorded: could not

Cl.N [NH4Cl]
Relative Activity (levodione reductase [2]; Table 4-2, metal 100 mM): 6.4% | Relative Activity (levodione reductase [2]; Table 4-2, metal 200 mM): 21.3% | Relative Activity (levodione reductase [2]; Table 4-2, metal 400 mM): 39.3% | Relative Activity (levodione reductase [2]; Table 4-2, metal 800 mM): 67.1% | Relative Activity (levodione reductase [2]; Table 4-2, metal 1600 mM): 100% | Relative Activity (levodione reductase [2]; Table 4-2, metal 1800 mM): 75.3%

[Cl-].[Na+] [NaCl]
Relative Activity (levodione reductase [2]; Table 4-1, Tris-HCl pH 7.5, metal 3 mM): 0.4% | Relative Activity (levodione reductase [2]; Table 4-2, metal 100 mM): 4.2% | Relative Activity (levodione reductase [2]; Table 4-2, metal 200 mM): 7.7% | Relative Activity (levodione reductase [2]; Table 4-2, metal 400 mM): 19.7% | Relative Activity (levodione reductase [2]; Table 4-2, metal 800 mM): 35.9% | Relative Activity (levodione reductase [2]; Table 4-2, metal 1600 mM): 75.3% | Relative Activity (levodione reductase [2]; Table 4-2, metal 1800 mM): 62.8% | Relative Activity (levodione reductase [2]; Table 4-2, metal 2000 mM): 62.8% | Relative Activity (levodione reductase [2]; Table 4-2, metal 2500 mM): 53.9% | Relative Activity (levodione reductase [2]; Table 4-2, metal 3000 mM): 34.1%

[Cl-].[Rb+] [RbCl]
increase of enzyme activity (levodione reductase [2]; 3 M RbCl): about 250 fold | Relative Activity (levodione reductase [2]; [5]): 6.4% | Relative Activity (levodione reductase [2]; [6]): 7.5% | Relative Activity (levodione reductase [2]; [7]): 23.3% | Relative Activity (levodione reductase [2]; [8]): 32.6% | Relative Activity (levodione reductase [2]; [9]): 66.4% | Relative Activity (levodione reductase [2]; [10]): 65.1% | Relative Activity (levodione reductase [2]; [11]): 93.2% | Relative Activity (levodione reductase [2]; [12]): 93.3% | Relative Activity (levodione reductase [2]; [13]): 100%

Dextrin [A4]
Assimilation [1]: −

Glycogen [A5]
Assimilation [1]: −

Inulin [A6]
Assimilation [1]: −

Mannan [A7]
Assimilation [1]: −

TWEEN ® 40 [A8]
Assimilation [1]: +

TWEEN ® 80 [A9]
Assimilation [1]: +
